Data from ChEMBL document CHEMBL1156355, “Phenolic compounds from Miconia myriantha inhibiting Candida aspartic proteases” (J Nat Prod, 2001).

How the values were obtained:
[1] = Inhibition of Candida albicans ATCC 10231 secreted aspartic protease
[2] = Inhibition of pepsin

O=c1oc2c(O)c(O)cc3c(=O)oc4c(O)c(O)cc1c4c23 [ELLAGIC ACID]
IC50 [1]: 10.5 µM
IC50 [2]: 37.1 µM

COc1ccc([C@@H]2CC(=O)c3c(O)c(C)c(O[C@@H]4O[C@@H]5COC(=O)c6cc(O)c(O)c(O)c6-c6c(cc(O)c(O)c6O)C(=O)O[C@H]5[C@H](O)[C@H]4O)c(C)c3O2)cc1
IC50 [1]: 8.4 µM
IC50 [2]: 66.6 µM

CC(C)CC(=O)N[C@H](C(=O)N[C@H](C(=O)N[C@@H](CC(C)C)[C@@H](O)CC(=O)N[C@@H](C)C(=O)N[C@@H](CC(C)C)[C@@H](O)CC(=O)O)C(C)C)C(C)C [PEPSTATIN]
IC50 [1]: 0.016 µM
IC50 [2]: 0.31 µM
